Assay results published in US20220403001A1, “PDE5 DERIVED REGULATORY CONSTRUCTS AND METHODS OF USE IN IMMUNOTHERAPY” (Obsidian Therapeutics, Inc., priority 2018, published 2022).

Columns and labels:
[1] = molecular target: hPDE5 mutants (Homo sapiens, UniProt O76074); assay: GFP MFI by FACS in HCT116 cells transduced with hPDE5 constructs; format: cell-based; settings: HCT-116
[2] = test system: hPDE5 mutants; assay: as above; format: cell-based, human; settings: for MFI / Stabilization ratio / Vardenafil dose response (MFI of GFP): HCT116; for Sildenafil dose response (MFI) / Tadalafil dose response (MFI): HCT 116
[3] = test system: hPDE5 mutants; assay: Western blot of AcGFP/GFP protein levels in HCT 116 cells expressing hPDE5 mutants; format: cell-based, human; settings: 10 μM Vardenafil, 24 hours, HCT 116
Description: Protein expression analysis of the combination mutants was performed in parallel via western blot. […] GAPDH levels were also analyzed to ensure even protein loading.

Q: Which results are given for “OT-001222: hPDE5 (F736A, D764N) GFP construct”?
A: Sildenafil Stabilization ratio ([1]; 10 μM, 48 h): 1.10; Vardenafil Stabilization ratio ([1]; 10 μM, 48 h): 4.26; MFI Sildenafil ([1]; GFP, 10 μM Sildenafil 48 h): 13862; MFI Vardenafil ([1]; GFP, 10 μM Vardenafil 48 h): 53848; Vardenafil Stabilization ratio ([2]; 10 μM, 48 h, HCT-116): 4.26; MFI DMSO ([2]; GFP, DMSO 48 h, HCT-116): 12633; MFI ([2]; Sildenafil 0.04 μM, 24 h): 8688; Stabilization ratio ([2]; Sildenafil 0.04 μM, 24 h): 0.81; MFI ([2]; Sildenafil 0.5 μM, 4 hours): 5322; Stabilization ratio ([2]; Sildenafil 0.5 μM, 4 hours): 1.64; MFI ([2]; Sildenafil 0.5 μM, 8 hours): 5083; Stabilization ratio ([2]; Sildenafil 0.5 μM, 8 hours): 1.57; MFI ([2]; Sildenafil 0.5 μM, 12 hours): 5122; Stabilization ratio ([2]; Sildenafil 0.5 μM, 12 hours): 1.58; MFI ([2]; Sildenafil 0.5 μM, 16 hours): 5600; Stabilization ratio ([2]; Sildenafil 0.5 μM, 16 hours): 1.73; MFI ([2]; Sildenafil 0.5 μM, 20 hours): 6003; Stabilization ratio ([2]; Sildenafil 0.5 μM, 20 hours): 1.85; MFI ([2]; Sildenafil 0.5 μM, 24 hours): 6144; Stabilization ratio ([2]; Sildenafil 0.5 μM, 24 hours): 1.89; MFI ([2]; Sildenafil 0.5 μM, 48 hours): 6682; Stabilization ratio ([2]; Sildenafil 0.5 μM, 48 hours): 2.06; MFI ([2]; Sildenafil 0.5 μM, 72 hours): 6906; Stabilization ratio ([2]; Sildenafil 0.5 μM, 72 hours): 2.13; MFI ([2]; Sildenafil 3.33 μM, 24 h): 10384; Stabilization ratio ([2]; Sildenafil 3.33 μM, 24 h): 0.97; MFI ([2]; Sildenafil 5 μM, 4 hours): 6314; Stabilization ratio ([2]; Sildenafil 5 μM, 4 hours): 1.88; MFI ([2]; Sildenafil 5 μM, 8 hours): 7021; Stabilization ratio ([2]; Sildenafil 5 μM, 8 hours): 2.09; MFI ([2]; Sildenafil 5 μM, 12 hours): 9199; Stabilization ratio ([2]; Sildenafil 5 μM, 12 hours): 2.73; MFI ([2]; Sildenafil 5 μM, 16 hours): 12280; Stabilization ratio ([2]; Sildenafil 5 μM, 16 hours): 3.65; MFI ([2]; Sildenafil 5 μM, 20 hours): 13280; Stabilization ratio ([2]; Sildenafil 5 μM, 20 hours): 3.95; MFI ([2]; Sildenafil 5 μM, 24 hours): 16705; Stabilization ratio ([2]; Sildenafil 5 μM, 24 hours): 4.97; MFI ([2]; Sildenafil 5 μM, 48 hours): 22061; Stabilization ratio ([2]; Sildenafil 5 μM, 48 hours): 6.56; MFI ([2]; Sildenafil 5 μM, 72 hours): 26995; Stabilization ratio ([2]; Sildenafil 5 μM, 72 hours): 8.02; MFI ([2]; Sildenafil 10 μM, 24 h): 13263; Stabilization ratio ([2]; Sildenafil 10 μM, 24 h): 1.24; Sildenafil dose response (MFI) ([2]; Sildenafil 11.11 μM, 48 h): 5675; MFI ([2]; Sildenafil 30 μM, 24 h): 26837; Stabilization ratio ([2]; Sildenafil 30 μM, 24 h): 2.5; Sildenafil dose response (MFI) ([2]; Sildenafil 33.33 μM, 48 h): 9677; Sildenafil dose response (MFI) ([2]; Sildenafil 100.00 μM, 48 h): 37494; Destabilizing mutation co-efficient ratio ([2]; Sildenafil dose response experiment (Table 27), vs OT-001216): 0.17; Vardenafil dose response (MFI of GFP) ([2]; Table 33, 0.01 μM, 48 h): 4444; Vardenafil dose response (MFI of GFP) ([2]; Table 33, 0.04 μM, 48 h): 4934; Vardenafil dose response (MFI of GFP) ([2]; Table 33, 3.33 μM, 48 h): 10516; Vardenafil dose response (MFI of GFP) ([2]; Table 33, 10.00 μM, 48 h): 24927; MFI ([2]; Tadalafil 11.11 μM, 24 h): 13789; Stabilization ratio ([2]; Tadalafil 11.11 μM, 24 h): 2.28; Tadalafil dose response (MFI) ([2]; Tadalafil 11.11 μM, 48 h): 8299; MFI ([2]; Tadalafil 33.33 μM, 24 h): 20464; Stabilization ratio ([2]; Tadalafil 33.33 μM, 24 h): 3.39; Tadalafil dose response (MFI) ([2]; Tadalafil 33.33 μM, 48 h): 15831; MFI ([2]; Tadalafil 100 μM, 24 h): 23542; Stabilization ratio ([2]; Tadalafil 100 μM, 24 h): 3.9; Tadalafil dose response (MFI) ([2]; Tadalafil 100.00 μM, 48 h): 31020; Destabilizing mutation coefficient ([2]; Tadalafil dose response experiment (Table 29), vs OT-001216): 0.17; MFI ([2]; Vardenafil 0.04 μM, 24 h): 6174; Stabilization ratio ([2]; Vardenafil 0.04 μM, 24 h): 0.80; MFI ([2]; Vardenafil 3.33 μM, 24 h): 29520; Stabilization ratio ([2]; Vardenafil 3.33 μM, 24 h): 3.84; MFI ([2]; Vardenafil 10 μM, 24 h): 29971; Stabilization ratio ([2]; Vardenafil 10 μM, 24 h): 3.90; MFI ([2]; Vardenafil 30 μM, 24 h): 46109; Stabilization ratio ([2]; Vardenafil 30 μM, 24 h): 5.99; Destabilizing mutation coefficient ([2]; Vardenafil dose response experiment (Table 28), vs OT-001216): 0.12; Destabilizing mutation coefficient ([2]; vs wildtype OT-001216, absence of ligand, HCT-116): 0.19; AcGFP protein levels (western blot) [3]: Vardenafil dependent stabilization of AcGFP protein levels
